From the NIST ThermoML archive (doi:10.1016/j.jct.2012.02.034)
± gives the expanded uncertainty stated by the source.

Test: excess molar enthalpy (molar enthalpy of mixing); xn = mol fraction of the nth substance listed
Conditions: 313.15 K, Fluid (supercritical or subcritical phases), Flow calorimetry

SMILES: CCOC(C)=O [ethyl acetate] + O=C=O
- excess molar enthalpy (9000 kPa, x2 = 0.087): -0.108 ± 0.00598 kcal/mol
- excess molar enthalpy (9000 kPa, x2 = 0.172): -0.226 ± 0.00717 kcal/mol
- excess molar enthalpy (9000 kPa, x2 = 0.256): -0.325 ± 0.00837 kcal/mol
- excess molar enthalpy (9000 kPa, x2 = 0.381): -0.46 ± 0.0108 kcal/mol
- excess molar enthalpy (9000 kPa, x2 = 0.462): -0.525 ± 0.0122 kcal/mol
- excess molar enthalpy (9000 kPa, x2 = 0.542): -0.603 ± 0.0136 kcal/mol
- excess molar enthalpy (9000 kPa, x2 = 0.66): -0.684 ± 0.0155 kcal/mol
- excess molar enthalpy (9000 kPa, x2 = 0.737): -0.727 ± 0.0163 kcal/mol
- excess molar enthalpy (9000 kPa, x2 = 0.814): -0.713 ± 0.0163 kcal/mol
- excess molar enthalpy (9000 kPa, x2 = 0.889): -0.636 ± 0.0155 kcal/mol
- excess molar enthalpy (9000 kPa, x2 = 0.926): -0.541 ± 0.0184 kcal/mol
- excess molar enthalpy (9000 kPa, x2 = 0.963): -0.379 ± 0.0196 kcal/mol
- excess molar enthalpy (12000 kPa, x2 = 0.123): -0.1 ± 0.00359 kcal/mol
- excess molar enthalpy (12000 kPa, x2 = 0.235): -0.185 ± 0.00502 kcal/mol
- excess molar enthalpy (12000 kPa, x2 = 0.338): -0.243 ± 0.00598 kcal/mol
- excess molar enthalpy (12000 kPa, x2 = 0.432): -0.279 ± 0.00669 kcal/mol
- excess molar enthalpy (12000 kPa, x2 = 0.519): -0.308 ± 0.00717 kcal/mol
- excess molar enthalpy (12000 kPa, x2 = 0.599): -0.327 ± 0.00717 kcal/mol
- excess molar enthalpy (12000 kPa, x2 = 0.673): -0.335 ± 0.00741 kcal/mol
- excess molar enthalpy (12000 kPa, x2 = 0.742): -0.322 ± 0.00789 kcal/mol
- excess molar enthalpy (12000 kPa, x2 = 0.806): -0.302 ± 0.00717 kcal/mol
- excess molar enthalpy (12000 kPa, x2 = 0.866): -0.263 ± 0.00717 kcal/mol
- excess molar enthalpy (12000 kPa, x2 = 0.949): -0.16 ± 0.00574 kcal/mol
- excess molar enthalpy (12000 kPa, x2 = 0.975): -0.0887 ± 0.0158 kcal/mol
- excess molar enthalpy (15000 kPa, x2 = 0.132): -0.0865 ± 0.00263 kcal/mol
- excess molar enthalpy (15000 kPa, x2 = 0.25): -0.151 ± 0.00382 kcal/mol
- excess molar enthalpy (15000 kPa, x2 = 0.356): -0.208 ± 0.00478 kcal/mol
- excess molar enthalpy (15000 kPa, x2 = 0.452): -0.242 ± 0.0055 kcal/mol
- excess molar enthalpy (15000 kPa, x2 = 0.539): -0.274 ± 0.00598 kcal/mol
- excess molar enthalpy (15000 kPa, x2 = 0.618): -0.285 ± 0.00621 kcal/mol
- excess molar enthalpy (15000 kPa, x2 = 0.724): -0.275 ± 0.00598 kcal/mol
- excess molar enthalpy (15000 kPa, x2 = 0.788): -0.245 ± 0.0055 kcal/mol
- excess molar enthalpy (15000 kPa, x2 = 0.818): -0.227 ± 0.00574 kcal/mol
- excess molar enthalpy (15000 kPa, x2 = 0.875): -0.182 ± 0.0055 kcal/mol
- excess molar enthalpy (15000 kPa, x2 = 0.927): -0.124 ± 0.00502 kcal/mol
- excess molar enthalpy (15000 kPa, x2 = 0.953): -0.0896 ± 0.00335 kcal/mol
- excess molar enthalpy (18000 kPa, x2 = 0.071): -0.0617 ± 0.00287 kcal/mol
- excess molar enthalpy (18000 kPa, x2 = 0.137): -0.101 ± 0.00311 kcal/mol
- excess molar enthalpy (18000 kPa, x2 = 0.259): -0.166 ± 0.00406 kcal/mol
- excess molar enthalpy (18000 kPa, x2 = 0.367): -0.201 ± 0.00454 kcal/mol
- excess molar enthalpy (18000 kPa, x2 = 0.463): -0.224 ± 0.00478 kcal/mol
- excess molar enthalpy (18000 kPa, x2 = 0.55): -0.237 ± 0.00502 kcal/mol
- excess molar enthalpy (18000 kPa, x2 = 0.629): -0.24 ± 0.00526 kcal/mol
- excess molar enthalpy (18000 kPa, x2 = 0.7): -0.225 ± 0.00502 kcal/mol
- excess molar enthalpy (18000 kPa, x2 = 0.825): -0.18 ± 0.0043 kcal/mol
- excess molar enthalpy (18000 kPa, x2 = 0.88): -0.145 ± 0.0043 kcal/mol
- excess molar enthalpy (18000 kPa, x2 = 0.931): -0.0989 ± 0.0043 kcal/mol
- excess molar enthalpy (18000 kPa, x2 = 0.955): -0.0746 ± 0.0043 kcal/mol
